pIC50, pKi: −log10 of the molar value.
Assays:
[1] = target: BCLXL (Homo sapiens, UniProt Q07817, V10N/V9A); assay: Fluorescence polarisation assay (PUMA-based probe displacement); format: binding; further: 20 nM protein, 10 nM fluorescent probe
Protocol: Fluorescence polarization measures the rotation of a fluorescing species in solution, the larger the molecule the more polarized the fluorescence emission.
[[…]] (GST UniProtKB® primary accession number P08515 and BCLXL UniProtKB® primary accession number Q07817-1),
resulting in an increase in anisotropy. If a compound is added which competitively binds to the same site as the probe, thereby releasing it, anisotropy decreases due to the increased amount of free probe.
An 11-point serial dilution of each compound was prepared in DMSO, the final buffer conditions were 10 mM 4-(2-hydroxyethyl)-1-piperazineethanesulfonic acid [HEPES], 150 mM NaCl, 0.05% Tween 20, pH 7.4 and 5% DMSO. The final protein concentration in the assay was 20 nM with the fluorescent probe present at 10 nM. The experiments were incubated for 2 hours at 23° C. before fluorescence polarization was measured on a Biotek SynergyNeo plate reader (Excitation 485 nm, emission 525 nm, parallel and perpendicular reads). […] The KI values were determined from the IC50 values according to Cer et al, Nucleic Acids Res, 2009, Jul. 1: 37(WebServer issue): W441-W445.

[2] = tested on: H146 cells; assay: H146 cell viability, MTT assay; format: cell-based; conditions: Homo sapiens, NCI-H146, 48 h, 48 h exposure
Protocol: (§1) MTT colorimetric assay is based on the mitochondrial reduction of tetrazolium salt by living cells. The viable cell number is proportional to the production of formazan salts, which can be read spectrophotometrically at 540 nm.
(§2) MOLT-4 and H146 cells were purchased from ATCC and cultivated in RPMI 1640 supplemented with 10% heat inactivated fetal bovine serum, penicillin (100 IU/ml), streptomycin (100 μg/ml) and L-glutamine (2 mM). Cells were cultured at 37° C. in a humidified atmosphere containing 5% CO2. Cells were seeded in 96 microwell plates (150 μL per well) and exposed to the compounds for 48 h (3.16 fold serially diluted; 9 concentrations each, triplicates). At the end of incubation time, 15 μL of MTT solution (5 mg/ml) were added per well and the cells were incubated for another 4 h. Then, 100 μL of 10% Sodium Dodecyl Sulfate (SDS)/HCl 10 mM were added per well and the plate was incubated overnight, before measurement of optical density at 540 nm. IC50s were calculated using standard four-parametric curve fitting.

[3] = tested on: MOLT-4 cells; assay: MOLT-4 cell viability, MTT assay; format: cell-based; conditions: Homo sapiens, MOLT-4, 48 h, 48 h exposure
Protocol: as §1, §2

BCLXL, sequence (Q07817 with tags, fused parts or gaps V9A/V10N): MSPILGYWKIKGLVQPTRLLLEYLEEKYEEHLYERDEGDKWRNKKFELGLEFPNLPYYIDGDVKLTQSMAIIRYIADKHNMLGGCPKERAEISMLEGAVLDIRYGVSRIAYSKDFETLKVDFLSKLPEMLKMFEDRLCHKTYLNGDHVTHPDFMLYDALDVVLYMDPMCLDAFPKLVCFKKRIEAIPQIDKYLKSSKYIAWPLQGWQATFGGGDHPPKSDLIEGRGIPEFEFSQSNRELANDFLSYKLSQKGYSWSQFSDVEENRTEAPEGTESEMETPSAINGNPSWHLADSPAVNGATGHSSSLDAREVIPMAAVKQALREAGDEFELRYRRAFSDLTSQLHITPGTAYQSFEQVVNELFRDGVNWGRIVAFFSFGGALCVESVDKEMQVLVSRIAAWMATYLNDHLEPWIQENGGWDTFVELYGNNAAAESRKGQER

Structure (SMILES)	pKi [1]	pIC50 [2]	pIC50 [3]
CC(C)c1cc(Nc2nc3ccccc3s2)nnc1Nc1nc(C(=O)O)cs1 [Example 6, 2-({6-[(1,3-Benzothiazol-2-yl)amino]-4-(propan-2-yl)pyridazin-3-yl}amino)-1,3-thiazole-4-carboxylic acid]	6.31	< 4.35	
Cc1c(Nc2nc3ccccc3s2)nnc(Nc2nc(C(=O)O)cs2)c1C(C)C [Example 8, 2-({6-[(1,3-Benzothiazol-2-yl)amino]-5-methyl-4-(propan-2-yl)pyridazin-3-yl}amino)-1,3-thiazole-4-carboxylic acid]	7.06	4.98	
Cc1c(Nc2nc(C(=O)O)cs2)nnc(Nc2nc3ccccc3s2)c1C(C)C [Example 10, 2-({6-[(1,3-Benzothiazol-2-yl)amino]-4-methyl-5-(propan-2-yl)pyridazin-3-yl}amino)-1,3-thiazole-4-carboxylic add]	6.39	5.08	
Cc1c(Nc2nc(C(=O)O)c(CCCOc3ccccc3F)s2)nnc(Nc2nc3ccccc3s2)c1C [Example 13, 2-({6-[(1,3-Benzothiazol-2-yl)amino]-4,5-dimethylpyridazin-3-yl}amino)-5-[3-(2-fluorophenoxy)propyl]-1,3-thiazole-4-carboxylic acid]	8.42	6.53	5.65
CCc1c(Nc2nc3ccccc3s2)nnc(Nc2nc(C(=O)O)cs2)c1C [Example 16, 2-({6-[(1,3-Benzothiazol-2-yl)amino]-5-ethyl-4-methylpyridazin-3-yl}amino)-1,3-thiazole-4-carboxylic acid]	7.28	5.09	
Cc1c(Nc2nc3ccccc3s2)nnc(Nc2nc(C(=O)O)cs2)c1CO [Example 18, 2-({6-[(1,3-Benzothiazol-2-yl)amino]-4-(hydroxymethyl)-5-methylpyridazin-3-yl}amino)-1,3-thiazole-4-carboxylic acid]	7.11	< 4.82	
Cc1c(Nc2nc(C(=O)O)c(CCCOc3ccc(CCCN(C)C)cc3F)s2)nnc(Nc2nc3ccccc3s2)c1C [Example 22, 2-({6-[(1,3-Benzothiazol-2-yl)amino]-4,5-dimethylpyridazin-3-yl}amino)-5-(3-{4-[3-(dimethylamino)propyl]-2-fluorophenoxy}propyl)-1,3-thiazole-4-carboxylic acid]	8.54	5.67	
O=C(O)c1csc(Nc2nnc(Nc3nc4ccccc4s3)c3c2CCC3)n1 [Example 23, 2-[[1-(1,3-Benzothiazol-2-ylamino)-6,7-dihydro-5H-cyclopenta[d]pyridazin-4-yl]amino]thiazole-4-carboxylic acid]	7.40	≤ 4.90	4.89
O=C(O)c1cccc(Nc2nnc(Nc3nc4ccccc4s3)c3c2CCC3)n1 [Example 25, 6-[[4-(1,3-benzothiazol-2-ylamino)-6,7-dihydro-5H-cyclopenta[d]pyridazin-1-yl]amino]pyridine-2-carboxylic acid]	6.00	5.50	5.15
Cc1c(Nc2nc(C(=O)O)cs2)nnc(Nc2nc3ccccc3s2)c1CO [Example 27, 2-({6-[(1,3-Benzothiazol-2-yl)amino]-5-(hydroxymethyl)-4-methylpyridazin-3-yl}amino)-1,3-thiazole-4-carboxylic acid]	6.51	< 4.82	< 4.89
CN(c1cc(C2CC2)c(Nc2nc3ccccc3s2)nn1)c1nc(C(=O)O)cs1 [Example 31, 2-({6-[(1,3-Benzothiazol-2-yl)amino]-5-cyclopropylpyridazin-3-yl}(methyl)amino)-1,3-thiazole-4-carboxylic acid]	8.59	5.38	5.63
Cc1cc(N(C)c2nc(C(=O)O)c(C3CN(CC(C)C)C3)s2)nnc1Nc1nc2ccccc2s1 [Example 156, 2-({6-[(1,3-Benzothiazol-2-yl)amino]-5-methylpyridazin-3-yl}(methyl)amino)-5-[1-(2-methylpropyl)azetidin-3-yl]-1,3-thiazole-4-carboxylic acid]	6.05		
Cc1cc(N(C)c2nc(C(=O)O)c(C3CN(C)C3)s2)nnc1Nc1nc2ccccc2s1 [Example 157, 2-({6-[(1,3-Benzothiazol-2-yl)amino]-5-methylpyridazin-3-yl}(methyl)amino)-5-(1-methylazetidin-3-yl)-1,3-thiazole-4-carboxylic acid]	5.92		
Cc1cc(N(C)c2nc(C(=O)O)c(C3CN(C(=O)NCc4ccccc4)C3)s2)nnc1Nc1nc2ccccc2s1 [Example 159, 2-({6-[(1,3-Benzothiazol-2-yl)amino]-5-methylpyridazin-3-yl}(methyl)amino)-5-[1-(benzylcarbamoyl)azetidin-3-yl]-1,3-thiazole-4-carboxylic acid]	6.74		
CCNC(=O)N1CC(c2sc(N(C)c3cc(C)c(Nc4nc5ccccc5s4)nn3)nc2C(=O)O)C1 [Example 160, 2-({6-[(1,3-Benzothiazol-2-yl)amino]-5-methylpyridazin-3-yl}(methyl)amino)-5-[1-(ethylcarbamoyl)azetidin-3-yl]-1,3-thiazole-4-carboxylic acid]	6.66		

The remaining compounds from weak to strong by pKi [1], led by results:

pKi [1]	pIC50 [2]	pIC50 [3]	Structure (SMILES)
6.48	4.90		Cc1c(Nc2cccc(C(=O)O)n2)nnc(Nc2nc3ccccc3s2)c1C [Example 2, 6-({6-[(1,3-Benzothiazol-2-yl)amino]-4,5-dimethylpyridazin-3-yl}amino)pyridine-2-carboxylic acid]
6.74	5.09		CC(C)c1cc(Nc2nc(C(=O)O)cs2)nnc1Nc1nc2ccccc2s1 [Example 5, 2-({6-[(1,3-Benzothiazol-2-yl)amino]-5-(propan-2-yl)pyridazin-3-yl}amino)-1,3-thiazole-4-carboxylic acid]
6.85	5.16	5.48	O=C(O)c1cccc(Nc2nnc(Nc3nc4ccccc4s3)c3c2CCCC3)n1 [Example 24, 6-[[4-(1,3-Benzothiazol-2-ylamino)-5,6,7,8-tetrahydrophthalazin-1-yl]amino]pyridine-2-carboxylic acid]
6.89	< 4.82	< 4.82	COCc1c(Nc2nc3ccccc3s2)nnc(Nc2nc(C(=O)O)cs2)c1C [Example 28, 2-({6-[(1,3-Benzothiazol-2-yl)amino]-5-(methoxymethyl)-4-methylpyridazin-3-yl}amino)-1,3-thiazole-4-carboxylic acid]
7.09	< 4.82	5.06	CCOCc1c(Nc2nc(C(=O)O)cs2)nnc(Nc2nc3ccccc3s2)c1C [Example 30, 2-({6-[(1,3-Benzothiazol-2-yl)amino]-4-(ethoxymethyl)-5-methylpyridazin-3-yl}amino)-1,3-thiazole-4-carboxylic acid]
7.37			Cc1cc(N(CCCC(=O)O)c2nc(C(=O)O)cs2)nnc1Nc1nc2ccccc2s1 [Example 158, 2-({6-[(1,3-Benzothiazol-2-yl)amino]-5-methylpyridazin-3-yl}(3-carboxypropyl)amino)-1,3-thiazole-4-carboxylic acid]
7.43	< 4.82		CCc1c(Nc2nc(C(=O)O)cs2)nnc(Nc2nc3ccccc3s2)c1C [Example 15, 2-({6-[(1,3-Benzothiazol-2-yl)amino]-4-ethyl-5-methylpyridazin-3-yl}amino)-1,3-thiazole-4-carboxylic acid]
7.52	≤ 4.89		Cc1c(Nc2nc3ccccc3s2)nnc(Nc2nc(C(=O)O)cs2)c1C1CC1 [Example 19, 2-({6-[(1,3-Benzothiazol-2-yl)amino]-4-cyclopropyl-5-methylpyridazin-3-yl}amino)-1,3-thiazole-4-carboxylic acid]
7.57	6.04	5.79	COCCCc1sc(Nc2nnc(Nc3nc4ccccc4s3)c(C)c2C)nc1C(=O)O [Example 12]
8.40	6.68	5.63	Cc1c(Nc2nc(C(=O)O)c(CCCOc3ccccc3)s2)nnc(Nc2nc3ccccc3s2)c1C [Example 9, 2-({6-[(1,3-Benzothiazol-2-yl)amino]-4,5-dimethylpyridazin-3-yl}amino)-5-(3-phenoxypropyl)-1,3-thiazole-4-carboxylic acid]
8.49	5.68		Cc1c(Nc2nc(C(=O)O)c(CCCOc3ccc(C(=O)N(C)C)cc3F)s2)nnc(Nc2nc3ccccc3s2)c1C [Example 14, 2-({6-[(1,3-Benzothiazol-2-yl)amino]-4,5-dimethylpyridazin-3-yl}amino)-5-{3-[4-(dimethylcarbamoyl)-2-fluorophenoxy]propyl}-1,3-thiazole-4-carboxylic acid]
